# US7651978B2, “Selective herbicides based on a substituted phenylsulphonylaminocarbonyl-triazolinone” (Arysta LifeScience North America, LLC, priority 1998, dated 2010)
# What was measured:
# Wheat [1] = test: Post-emergence test/greenhouse; type: in vivo; conditions: post-emergence, 60 g ai./ha, after three weeks; 0%=no effect, 100%=total destruction
# Procedure: (§1) Post-Emergence Test/Greenhouse [table] To produce a suitable preparation of active compound, 1 part by weight of active compound is mixed with the stated amount of solvent, the stated amount of emulsifier is added and the concentrate is diluted with water to the desired concentration. Test plants which have a height of 5-15 cm are sprayed with the preparation of active compound such that the particular amounts of active compound desired are applied per unit area. The concentration of the spray liquor is chosen so that the particular amounts of active compound desired are applied in 500 ml of water/ha. After three weeks, the degree of damage to the plants is assessed in % damage in comparison to the development of the untreated control. The figures denote: • 0%=no effect (like untreated control) • 100%=total destruction
# Veronica = test: Post-emergence test/greenhouse; type: in vivo; conditions: 60 g ai./ha, after three weeks
# Procedure: as §1
# [2] = test system: weeds, such as Alopecurus, Avena, Bromus, Digitaria, Echinochloa, Matricaria, Polygonum and Setaria; test: Pre-emergence test/greenhouse, summary over weeds; type: in vivo; conditions: cf. Table A1
# Procedure: Pre-Emergence Test/Greenhouse Solvent: 5 parts by weight of acetone Emulsifier: 1 part by weight of alkylaryl polyglycol ether To produce a suitable preparation of active compound, 1 part by weight of active compound is mixed with the stated amount of solvent, the stated amount of emulsifier is added and the concentrate is diluted with water to the desired concentration. Seeds of the test plants are sown in normal soil. After about 24 hours, the soil is sprayed with the preparation of active compound such that the particular amount of active compound desired is applied per unit area. The concentration of the spray liquor is chosen so that the particular amount of active compound desired is applied in 500 ml of water per hectare. After three weeks, the degree of damage to the plants is assessed in % damage in comparison to the development of the untreated control. […] Table A1). The considerable superiority of (I)-Na-salt over the comparative compound (G) is shown in Table A2 [“ai.”=“active ingredient”].
# wheat [3] = test: Post-emergence tests/outdoors (Example C, Canada), crop damage; type: in vivo, summer wheat; conditions: outdoors, 15 g of a.i./ha + SAS (Canplus 411), 70 WP, 9 tests, 1 to 8 weeks after treatment
# Procedure: (§2) Post-Emergence Tests/Outdoors In addition to the comparative compounds (B) and (D), the sodium salt of the compound of the formula (I) was tested under outdoor conditions in the main cultivation areas of summer wheat in Canada against economically important weeds. The small-plot experiments were carried out on cultivated land under agricultural use. Areas with particularly extensive weed growth were chosen preferably. The active compounds were applied across the area by the spray method, with an average droplet size. To produce a useful preparation of active compound, the active compounds were formulated as 70 WP (70% w/w water-dispersible powder) and applied with customary amounts of water. Wetting of the plants was improved by addition of a surface-active substance (SAS) in the concentrations recommended by the respective manufacturer. To assess the crop compatibility, from 1 to 8 weeks after the treatment, plant growth inhibitions or […] of the leaf area were assessed in % damage in comparison to the development of the untreated control. At different intervals after the treatment, the herbicidal activity was assessed as % reduction in comparison to the untreated control, based on the weed development. The figures denote: • 0%=no damage of the crops or no herbicidal effect, • 100%=total destruction of the crops or the weeds.
# [4] = test system: weeds, such as Agropyron, Alopecurus, Avena, Bromus, Lolium, Setaria and Veronica; test: Post-emergence test/greenhouse, summary over weeds; type: in vivo; conditions: cf. Table B1
# Procedure: as §1, with “[…] A considerable superiority of (I)-Na-salt (at 125 g/ha) over the comparative compounds (G) and (H) (in each case at 250 g/ha!) is shown in Table B2.” for “The figures denote: • 0%=no effect (like untreated control) • 100%=total destruction”
# Thlaspi arvense = test: Post-emergence tests/outdoors (Example C, Canada); type: in vivo; conditions: outdoors, 15 g of a.i./ha + SAS (Canplus 411), 70 WP, 3 tests
# Procedure: as §2
# Sinapis arvensis = test: Post-emergence tests/outdoors (Example C, Canada); type: in vivo; conditions: outdoors, 15 g of a.i./ha + SAS (Canplus 411), 70 WP, 5 tests
# Procedure: as §2
# Setaria viridis = test: Post-emergence tests/outdoors (Example C, Canada); type: in vivo; conditions: outdoors, 15 g of a.i./ha + SAS (Canplus 411), 70 WP, 5 tests
# Procedure: as §2
# Avena fatua = test: Post-emergence tests/outdoors (Example C, Canada); type: in vivo; conditions: outdoors, 15 g of a.i./ha + SAS (Canplus 411), 70 WP, 6 tests
# Procedure: as §2
# Fallopia convolvulus = test: Post-emergence tests/outdoors (Example C, Canada); type: in vivo; conditions: outdoors, 15 g of a.i./ha + SAS (Canplus 411), 70 WP, 5 tests
# Procedure: as §2
# Alopecurus = test: Pre-emergence test/greenhouse; type: in vivo; conditions: 504 h, 30 g of ai./ha, after three weeks, read-out: degree of damage, Alopecurus
# Procedure: (§3) Pre-Emergence Test/Greenhouse Solvent: 5 parts by weight of acetone Emulsifier: 1 part by weight of alkylaryl polyglycol ether To produce a suitable preparation of active compound, 1 part by weight of active compound is mixed with the stated amount of solvent, the stated amount of emulsifier is added and the concentrate is diluted with water to the desired concentration. Seeds of the test plants are sown in normal soil. After about 24 hours, the soil is sprayed with the preparation of active compound such that the particular amount of active compound desired is applied per unit area. The concentration of the spray liquor is chosen so that the particular amount of active compound desired is applied in 500 ml of water per hectare. After three weeks, the degree of damage to the plants is assessed in % damage in comparison to the development of the untreated control. The figures denote: • 0%=no effect (like untreated control) • 100%=total destruction
# Avena = test: Pre-emergence test/greenhouse; type: in vivo; conditions: 504 h, 30 g of ai./ha, after three weeks, read-out: degree of damage, Avena
# Procedure: as §3
# Wheat [5] = test: Pre-emergence test/greenhouse; type: in vivo; conditions: pre-emergence, 30 g of ai./ha, after three weeks; 0%=no effect, 100%=total destruction
# Procedure: as §3
# Digitaria = test: Pre-emergence test/greenhouse; type: in vivo; conditions: 30 g of ai./ha, after three weeks
# Procedure: as §3
# Polygonum = test: Pre-emergence test/greenhouse; type: in vivo; conditions: 30 g of ai./ha, after three weeks
# Procedure: as §3
# Matricaria = test: Pre-emergence test/greenhouse; type: in vivo; conditions: 30 g of ai./ha, after three weeks
# Procedure: as §3
compound,measurement,setting,value
"COc1nn(C(=O)NS(=O)(=O)c2ccccc2C(F)(F)F)c(=O)n1C [(D), 2-(2-Trifluoromethyl-phenylsulphonylaminocarbonyl)-4-methyl-5-methoxy-2,4-dihydro-3H-1,2,4-triazol-3-one]","degree of damage, Wheat",Wheat [1],0%
same,"degree of damage, Veronica",Veronica,0%
same,"herbicidal activity (in words, compared with (I)-Na-salt)",[2],considerably weaker herbicidal activity
same,Crop damage (wheat),wheat [3],12%
same,"herbicidal activity (in words, compared with (I)-Na-salt)",[4],considerably weaker herbicidal activity
same,"herbicidal effect (%), Thlaspi arvense",Thlaspi arvense,95%
same,"herbicidal effect (%), Sinapis arvensis",Sinapis arvensis,95%
same,"herbicidal effect (%), Setaria viridis",Setaria viridis,81%
same,"herbicidal effect (%), Avena fatua",Avena fatua,65%
same,"herbicidal effect (%), Fallopia convolvulus",Fallopia convolvulus,70%
same,pest or weed control at 30 g/ha,Alopecurus,70%
same,pest or weed control at 30 g/ha,Avena,50%
same,"degree of damage, Wheat",Wheat [5],0%
same,"degree of damage, Digitaria",Digitaria,80%
same,"degree of damage, Polygonum",Polygonum,70%
same,"degree of damage, Matricaria",Matricaria,30%
